# Assay results as given in paper PMC5589893, “Identification of Aspergillus fumigatus UDP-Galactopyranose Mutase Inhibitors” (Scientific Reports, 2017).
# Like-named read-outs stand apart in the source and are kept apart here.
# Key:
# A. fumigatus UGM [1] = molecular target: T1, A. fumigatus UGM (Aspergillus fumigatus, UniProt Q4W1X2); assay: biochemical; format: binding; conditions: read-out: Normalized anisotropy (%)
# T1 construct: 8x His-tag (TEV-cleavable) (cleaved yes); made in house; host or cells: E. coli BL21 Turbo (DE3)
# T1 sequence (Q4W1X2 whole entry): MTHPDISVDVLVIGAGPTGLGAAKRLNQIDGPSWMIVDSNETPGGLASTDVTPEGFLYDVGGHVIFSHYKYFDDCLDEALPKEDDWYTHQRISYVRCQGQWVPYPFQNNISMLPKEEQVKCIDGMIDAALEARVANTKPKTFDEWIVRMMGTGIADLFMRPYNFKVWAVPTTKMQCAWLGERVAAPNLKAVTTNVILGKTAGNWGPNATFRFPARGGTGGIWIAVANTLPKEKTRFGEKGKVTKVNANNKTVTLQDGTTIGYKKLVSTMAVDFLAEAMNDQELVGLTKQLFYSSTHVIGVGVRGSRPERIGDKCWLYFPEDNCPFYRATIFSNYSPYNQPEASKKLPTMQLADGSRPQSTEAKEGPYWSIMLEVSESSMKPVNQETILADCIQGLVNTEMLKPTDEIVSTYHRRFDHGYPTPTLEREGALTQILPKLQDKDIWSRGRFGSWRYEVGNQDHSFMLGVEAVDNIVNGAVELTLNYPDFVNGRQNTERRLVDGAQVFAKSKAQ
# Protocol: High-throughput screening of the Spectrum Collection library using the FP assay with the ADP-TAMRA[22] probe was performed at the Virginia Tech Center for Drug Discovery Screening Laboratory. 384 well plates (Greiner 784900) were used and the reaction volume was 15 µL using 25 mM HEPES buffer (pH 7.0). For the screening, 30 nM of ADP-TAMRA with 6.7 µM UGM (based on the Bradford assay) and 20 µM of library compound were used, with a final DMSO concentration of 2%. Fluorescence polarization measurements were performed with excitation at 544 nm and emission at 584 nm, using a wavelength cutoff of 570 nm. Anisotropy measurements were performed after 30 and 120 minutes of incubation at 25 °C. Anisotropy values were normalized to the values obtained in the negative control sample: UGM, ADP-TAMRA, and DMSO (high anisotropy values). The positive control consisted of ADP-TAMRA and DMSO (low anisotropy values). The Z prime (Z′) value was determined using equation (1) where, σN,P and μN,P represent the standard deviation and the mean value the of the negative and positive controls respectively.1 Z′=1−3(σN+σP)/|μN−μP|
# A. fumigatus UGM [2] = molecular target: T1, A. fumigatus UGM; assay: biochemical; format: biochemical; conditions: for Concentration effect: UPLC; for inhibition at 200 µM: read-out: Inhibition > 50 %; for Inhibition of product formation, concentration dependence: UPLC at 20 and 200 µM compound, 2% DMSO; for enzyme activity at which the IC50 curve plateaued: 3 min
# Protocol: (§1) The reaction was quenched with the addition of 70 µL acetonitrile. […] Samples were run at a flow rate of 0.5 mL/min for 5 min. IC50 was also determined by following NADPH oxidation at 340 nm. […] Data was analyzed using KaleidaGraph software. […] Global fitting was performed with Graphpad Prims 6 software (La Jolla, CA).
# A. fumigatus [3] = assay: Toxicity study, growth in PDA medium at 37 °C; format: cell-based, Aspergillus fumigatus
# A. fumigatus UGM [4] = molecular target: T1, A. fumigatus UGM; assay: biochemical; format: biochemical; conditions: for Inhibition of NADPH oxidation: absence of UDP-Galf
# Protocol: as §1
# A. fumigatus [5] = assay: Thermotolerance study, growth in PDA at 50 °C; format: cell-based, Aspergillus fumigatus; conditions: 1000 µM compound, 48 h at 50 °C, vs reference
# [6] = tested on: UDP-glucuronosyltransferases; conditions: cited from earlier work
# A. fumigatus [7] = assay: Congo red susceptibility assay; format: cell-based, Aspergillus fumigatus; conditions: 100 µM compound with congo red (0.5 and 1 mg/mL), 48 h, 37 °C
# UGM = molecular target: T2, UGM (Aspergillus fumigatus, UniProt Q4W1X2); assay: ThermoFAD melting temperature assay; format: binding; conditions: for Effect on Tm of UGM: vs UGM alone
# T2 construct: 8x His-tag (TEV-cleavable) (cleaved yes); made in house; host or cells: E. coli BL21 Turbo (DE3)
# T2 sequence (Q4W1X2 whole entry): as above
# Protocol: The melting temperature[25] of UGM was determined by measuring the FAD fluorescence as a function of temperature (20–90 °C, 1 °C step) following the reported ThermoFAD procedure. The reaction mix consisted of 20 µL of 1 mg/mL UGM, 2% DMSO in 50 mM potassium phosphate buffer, pH 7.0. As a reference and positive control, the Tm was calculated in the presence DMSO and UDP (10 mM). Different concentrations of inhibitors were added in the range of 0–1 mM at a final DMSO concentration of 2% in the above-mentioned buffer. All experiments were done in triplicate.
# A. fumigatus UGM [8] = molecular target: T1, A. fumigatus UGM; assay: biochemical; format: binding
# Protocol: Binding of inhibitors to UGM was measured with an Auto-ITC 200 ITC instrument. UGM was dialyzed in 50 mM potassium phosphate buffer, pH 7.0, for 2 h at 4 °C. In all cases, ligands were dissolved in dialysis buffer and protein and ligand were filtered with a […] membrane prior to loading. […] Inhibitor concentration in the syringe was 2 mM (2% DMSO), except for chrysin where the concentration was 600 µM (4% DMSO). […] Thermodynamic parameters were determined from ITC results using Microcal Origin version 7.0 (OriginLab) with the “ITC custom” add-on installed.
# A. fumigatus UGM [9] = molecular target: T1, A. fumigatus UGM; assay: ADP-TAMRA fluorescence anisotropy binding and competition assay; conditions: for Kd: decrease in anisotropy of UGM (6.7 µM) - ADP-TAMRA (30 nM) complex, read-out: KD, competitive binding against ADP-TAMRA
# Protocol: Our group previously developed a binding assay to identify inhibitors of flavoenzymes that use NADP(H) as substrate. Since UGM also used NADPH for reduction, we determined whether this compound bound to UGM. This was done by taking the ADP-TAMRA[22] chromophore to a final concentration of 30 nM in 25 mM HEPES buffer, pH 7.5, mixed with various concentrations of UGM (0–300 µM, based on Bradford). To determine if the chromophore was binding to the active site of UGM, the competitive binding of UDP (0–1 mM) and NADP^+ (0–10 mM) was calculated by measuring the decrease in anisotropy of the UGM (6.7 µM) - ADP-TAMRA (30 nM) complex. At each concentration of ligand, the solution was incubated for 10 min at room temperature. The sample was excited at 544 nm and the emission recorded at 584 nm using a wavelength cutoff of 570 nm.
# [10] = Precipitation / solubility observed in inhibition assays; format: physicochemical
# [11] = inhibition at 200 µM vs 20 µM compound
# [12] = 20 µM compound, 2% DMSO, 30 nM ADP-TAMRA, normalized to negative control
# [13] = product formation by UPLC with 200 µM compound, 20 µM UDP-Galf, 10 mM sodium dithionite
# [14] = 20, 100 and 1000 µM compound, 2% DMSO, 1 mg/mL UGM
structure (smiles),measurement,setting,value
"O=C(O)c1cc(/N=N/c2ccc(O)c(C(=O)O)c2)ccc1O [Olsalazine sodium, reference compound]",remaining activity at 20 µM,A. fumigatus UGM [1],48%
same,Concentration effect,A. fumigatus UGM [2]; [11],-
same,inhibition at 200 µM,A. fumigatus UGM [2],< 50%
COc1cc(C)c(C(=O)Oc2cc(C)c(C(=O)O)c(O)c2C)c(OC)c1C [Diffractaic acid],remaining activity at 20 µM,A. fumigatus UGM [1]; [12],37%
same,Concentration effect,A. fumigatus UGM [2]; [11],-
same,inhibition at 200 µM,A. fumigatus UGM [2]; [13],< 50%
O=C1C[C@@H](c2ccc(O)cc2)Oc2cc(O)cc(O)c21 [(2S)-naringenin],A. fumigatus toxicity,A. fumigatus [3]; 1000 µM,no A. fumigatus toxicity
same,A. fumigatus toxicity under optimal growth conditions,"A. fumigatus [3]; 600 and 1000 µM, 24-48 h",not toxic
same,Type of Inhibition,A. fumigatus UGM [4]; NADPH oxidation at different concentrations of inhibitor and NADPH,competitive against NADPH
same,Inhibition of NADPH oxidation,A. fumigatus UGM [4],inhibited NADPH oxidation
same,remaining activity at 20 µM,A. fumigatus UGM [1]; [12],23%
same,Delay in colony development,A. fumigatus [5],~ 30%
same,Effect on UDP-glucuronosyltransferases,[6],inhibitory effect
same,Growth decrease with congo red,A. fumigatus [7],~ 30%
same,Increase of Tm of UGM,UGM; [14],~ 2.7 °C
same,Kd,A. fumigatus UGM [8],65 ± 13 µM
same,T•∆S,"A. fumigatus UGM [8]; ITC, 25 °C",0.9 ± 0.3 kcal/mol
same,∆G,"A. fumigatus UGM [8]; ITC, 25 °C",-5.7 ± 1.0 kcal/mol
same,∆H,"A. fumigatus UGM [8]; ITC, 25 °C",-4.8 ± 1.0 kcal/mol
same,"Inhibition of product formation, concentration dependence",A. fumigatus UGM [2],concentration dependent potency
same,Concentration effect,A. fumigatus UGM [2]; [11],+
same,inhibition at 200 µM,A. fumigatus UGM [2],> 50%
"O=c1ccn([C@@H]2O[C@H](COP(=O)(O)OP(=O)(O)O)[C@@H](O)[C@H]2O)c(=O)[nH]1 [UDP, reference compound]",Kd,A. fumigatus UGM [9],10 ± 1 µM
same,Shift of Tm of UGM,UGM; 10 mM UDP,3 °C
same,T•∆S,"A. fumigatus UGM [8]; ITC, 25 °C",10.5 ± 0.3 kcal/mol
same,∆G,"A. fumigatus UGM [8]; ITC, 25 °C",-7.1 ± 0.1 kcal/mol
same,∆H,"A. fumigatus UGM [8]; ITC, 25 °C",3.3 ± 0.1 kcal/mol
same,Kd,"A. fumigatus UGM [8]; ITC, 25 °C, read-out: KD",5.4 ± 0.8 µM
"O=C(NCCO[N+](=O)[O-])c1cccnc1 [Nicorandil, reference compound]",remaining activity at 20 µM,A. fumigatus UGM [1],27%
same,Concentration effect,A. fumigatus UGM [2]; [11],-
same,inhibition at 200 µM,A. fumigatus UGM [2],< 50%
"N#CC(c1ccc(Cl)cc1)c1c(Cl)cc(-n2ncc(=O)[nH]c2=O)cc1Cl (centres unmarked) [Diclazuril, reference compound]",remaining activity at 20 µM,A. fumigatus UGM [1]; [12],37%
same,Effect on Tm of UGM,UGM; [14],reduced the Tm
same,"Inhibition of product formation, concentration dependence",A. fumigatus UGM [2],concentration dependent potency
same,Concentration effect,A. fumigatus UGM [2]; [11],+
same,inhibition at 200 µM,A. fumigatus UGM [2]; [13],> 50%
O=C1C[C@@H](c2ccc(O)cc2)Oc2cc(O)ccc21 [liquiritigenin],Inhibition of UGM by derivatives,A. fumigatus UGM [2],no inhibitory effect
"Cc1nc(-c2ccc(OCC(C)C)c(C#N)c2)sc1C(=O)O [Febuxostat, reference compound]",remaining activity at 20 µM,A. fumigatus UGM [1]; [12],39%
same,Effect on Tm of UGM,UGM; [14],reduced the Tm
same,"Inhibition of product formation, concentration dependence",A. fumigatus UGM [2],concentration dependent potency
same,Concentration effect,A. fumigatus UGM [2]; [11],+
same,inhibition at 200 µM,A. fumigatus UGM [2],> 50%
"NC(=O)c1ccc[n+]([C@@H]2O[C@H](COP(=O)([O-])OP(=O)(O)OC[C@H]3O[C@@H](n4cnc5c(N)ncnc54)[C@H](OP(=O)(O)O)[C@@H]3O)[C@@H](O)[C@H]2O)c1 [NADP^+, reference compound]",Kd,A. fumigatus UGM [9],92 ± 13 µM
same,T•∆S,"A. fumigatus UGM [8]; ITC, 25 °C",-8.4 ± 0.7 kcal/mol
same,∆G,"A. fumigatus UGM [8]; ITC, 25 °C",-4.6 ± 0.3 kcal/mol
same,∆H,"A. fumigatus UGM [8]; ITC, 25 °C",-13.0 ± 0.3 kcal/mol
same,Kd,"A. fumigatus UGM [8]; ITC, 25 °C, read-out: KD",413 ± 24 µM
"O=C1C[C@H](c2ccc(O)cc2)Oc2cc(O)cc(O)c21 [R enantioniomer of naringenin, (2 R)-naringenin]",Inhibition of UGM by derivatives,A. fumigatus UGM [2],no inhibition
"Cc1ccc(C(=O)Nc2ccc(S(=O)(=O)O)c3cc(S(=O)(=O)O)cc(S(=O)(=O)O)c23)cc1NC(=O)c1cccc(NC(=O)Nc2cccc(C(=O)Nc3cc(C(=O)Nc4ccc(S(=O)(=O)O)c5cc(S(=O)(=O)O)cc(S(=O)(=O)O)c45)ccc3C)c2)c1 [Suramin hexasodium, reference compound]",remaining activity at 20 µM,A. fumigatus UGM [1],41%
same,Concentration effect,A. fumigatus UGM [2]; [11],-
same,inhibition at 200 µM,A. fumigatus UGM [2],< 50%
O=c1c(O)c(-c2ccc(O)cc2)oc2cc(O)cc(O)c12 [Kaempferol],remaining activity at 20 µM,A. fumigatus UGM [1]; [12],38%
same,anisotropy at which the KD curve plateaued,A. fumigatus UGM [9]; 30 nM ADP-TAMRA,around 50%
same,enzyme activity at which the IC50 curve plateaued,A. fumigatus UGM [2],around 70%
same,Concentration effect,A. fumigatus UGM [2]; [11],+
same,inhibition at 200 µM,A. fumigatus UGM [2]; [13],> 50%
Nc1ncnc2c1ncn2[C@@H]1O[C@H](COP(=O)(O)OP(=O)(O)O)[C@@H](O)[C@H]1O [ADP],Kd,A. fumigatus UGM [9],124 ± 16 µM
O=c1cc(-c2ccccc2)oc2cc(O)cc(O)c12 [Chrysin],Concentration above which compound precipitated,[10]; with 2% DMSO,above 100 µM
same,IC50,A. fumigatus UGM [4],> 1000 µM
same,Inhibition of NADPH oxidation,A. fumigatus UGM [4],did not inhibit NADPH oxidation
same,remaining activity at 20 µM,A. fumigatus UGM [1]; [12],48%
same,Effect on Tm of UGM,UGM; [14],no effect on Tm
same,Binding to UGM detected by ITC,A. fumigatus UGM [8],nor was binding detected
same,IC50,A. fumigatus UGM [2],24 ± 4 µM
same,enzyme activity at which the IC50 curve plateaued,A. fumigatus UGM [2]; UPLC IC50 curve saturating below full inhibition (chrysin at ~30 µM),~ 35%
same,"Inhibition of product formation, concentration dependence",A. fumigatus UGM [2],concentration dependent potency
same,Concentration effect,A. fumigatus UGM [2]; [11],+
same,inhibition at 200 µM,A. fumigatus UGM [2],> 50%
O=c1oc2c(O)c(O)cc3c(=O)oc4c(O)c(O)cc1c4c23 [Ellagic acid],Solubility,[10],low solubility
same,remaining activity at 20 µM,A. fumigatus UGM [1]; [12],50%
same,Concentration effect,A. fumigatus UGM [2]; ellagic acid assayed at 6 and 12 µM with 2% DMSO due to low solubility,-
"CS(=O)(=O)Nc1ccc([N+](=O)[O-])cc1Oc1ccccc1 [Nimesulide, reference compound]",remaining activity at 20 µM,A. fumigatus UGM [1],28%
same,Concentration effect,A. fumigatus UGM [2]; [11],-
same,inhibition at 200 µM,A. fumigatus UGM [2],< 50%
O=C(O)C1=CC(=C(c2ccc(O)c(C(=O)O)c2)c2ccc(O)c(C(=O)O)c2)C=CC1=O [Aurin tricarboxylic acid],remaining activity at 20 µM,A. fumigatus UGM [1]; [12],14%
same,Concentration effect,A. fumigatus UGM [2]; [11],-
same,inhibition at 200 µM,A. fumigatus UGM [2]; [13],< 50%
